Measured values reported in ChEMBL document CHEMBL4507303, “Data for DCP probe TP-004” (2021).
Calls of active or inactive are those of the source. The calls are words filed in the database; no cut-off is given here.

Tests used:
[1] = target: Serine/threonine-protein kinase PLK1 (Homo sapiens) (UniProt P53350); conditions: Compound concentration 1000.0 nM
[2] = target: Eukaryotic translation initiation factor 2-alpha kinase 1 (Homo sapiens) (UniProt Q9BQI3); conditions: Compound concentration 1000.0 nM
[3] = target: Mitogen-activated protein kinase kinase kinase 5 (Homo sapiens) (UniProt Q99683); conditions: Compound concentration 1000.0 nM
[4] = target: Vascular endothelial growth factor receptor 2 (Homo sapiens) (UniProt P35968); conditions: Compound concentration 1000.0 nM
[5] = target: ALK tyrosine kinase receptor (Homo sapiens) (UniProt Q9UM73); conditions: Compound concentration 1000.0 nM
[6] = target: Myosin light chain kinase, smooth muscle (Homo sapiens) (UniProt Q15746); conditions: Compound concentration 1000.0 nM
[7] = target: Atypical kinase COQ8B, mitochondrial (Homo sapiens) (UniProt Q96D53); conditions: Compound concentration 1000.0 nM
[8] = target: D(4) dopamine receptor (Homo sapiens) (UniProt P21917); conditions: Compound concentration 10.0 uM
[9] = target: Phosphatidylinositol 4,5-bisphosphate 3-kinase catalytic subunit gamma isoform (Homo sapiens) (UniProt P48736); conditions: Compound concentration 1000.0 nM
[10] = target: Cyclin-dependent kinase 9 (Homo sapiens) (UniProt P50750); conditions: Compound concentration 1000.0 nM
[11] = target: Phosphatidylinositol 3-kinase C2 domain-containing subunit gamma (Homo sapiens) (UniProt O75747); conditions: Compound concentration 1000.0 nM
[12] = target: Myosin light chain kinase 2, skeletal/cardiac muscle (Homo sapiens) (UniProt Q9H1R3); conditions: Compound concentration 1000.0 nM
[13] = target: Dual specificity protein kinase TTK (Homo sapiens) (UniProt P33981); conditions: Compound concentration 1000.0 nM
[14] = target: Mitogen-activated protein kinase kinase kinase 1 (Homo sapiens) (UniProt Q13233); conditions: Compound concentration 1000.0 nM
[15] = test system: Mast/stem cell growth factor receptor Kit (Homo sapiens), P10721 [V559D]; conditions: Compound concentration 1000.0 nM
[16] = target: Serine/threonine-protein kinase Chk1 (Homo sapiens) (UniProt O14757); conditions: Compound concentration 1000.0 nM
[17] = target: Serine/threonine-protein kinase MRCK beta (Homo sapiens) (UniProt Q9Y5S2); conditions: Compound concentration 1000.0 nM
[18] = target: Transient receptor potential cation channel subfamily M member 6 (Homo sapiens) (UniProt Q9BX84); conditions: Compound concentration 1000.0 nM
[19] = target: Ribosomal protein S6 kinase alpha-5 (Homo sapiens) (UniProt O75582); conditions: Compound concentration 1000.0 nM
[20] = target: Mitogen-activated protein kinase kinase kinase kinase 2 (Homo sapiens) (UniProt Q12851); conditions: Compound concentration 1000.0 nM
[21] = target: Serine/threonine-protein kinase PAK 1 (Homo sapiens) (UniProt Q13153); conditions: Compound concentration 1000.0 nM
[22] = target: Mitogen-activated protein kinase 13 (Homo sapiens) (UniProt O15264); conditions: Compound concentration 1000.0 nM
[23] = target: Epithelial discoidin domain-containing receptor 1 (Homo sapiens) (UniProt Q08345); conditions: Compound concentration 1000.0 nM
[24] = target: Serine/threonine-protein kinase 4 (Homo sapiens) (UniProt Q13043); conditions: Compound concentration 1000.0 nM
[25] = target: Cyclin-G-associated kinase (Homo sapiens) (UniProt O14976); conditions: Compound concentration 1000.0 nM
[26] = target: Serine/threonine-protein kinase PLK4 (Homo sapiens) (UniProt O00444); conditions: Compound concentration 1000.0 nM
[27] = target: Vascular endothelial growth factor receptor 1 (Homo sapiens) (UniProt P17948); conditions: Compound concentration 1000.0 nM
[28] = target: Myotonin-protein kinase (Homo sapiens) (UniProt Q09013); conditions: Compound concentration 1000.0 nM
[29] = target: Homeodomain-interacting protein kinase 2 (Homo sapiens) (UniProt Q9H2X6); conditions: Compound concentration 1000.0 nM
[30] = target: Vascular endothelial growth factor receptor 3 (Homo sapiens) (UniProt P35916); conditions: Compound concentration 1000.0 nM
[31] = target: Serine/threonine-protein kinase PAK 4 (Homo sapiens) (UniProt O96013); conditions: Compound concentration 1000.0 nM
[32] = target: Receptor-interacting serine/threonine-protein kinase 4 (Homo sapiens) (UniProt P57078); conditions: Compound concentration 1000.0 nM
[33] = target: Serine/threonine-protein kinase 17A (Homo sapiens) (UniProt Q9UEE5); conditions: Compound concentration 1000.0 nM
[34] = target: Citron Rho-interacting kinase (Homo sapiens) (UniProt O14578); conditions: Compound concentration 1000.0 nM
[35] = target: Insulin-like growth factor 1 receptor (Homo sapiens) (UniProt P08069); conditions: Compound concentration 1000.0 nM
[36] = target: Serine/threonine-protein kinase WNK1 (Homo sapiens) (UniProt Q9H4A3); conditions: Compound concentration 1000.0 nM
[37] = target: Sigma intracellular receptor 2 (Homo sapiens) (UniProt Q5BJF2); conditions: Compound concentration 10.0 uM
[38] = target: 5-hydroxytryptamine receptor 1D (Homo sapiens) (UniProt P28221); conditions: Compound concentration 10.0 uM
[39] = target: Tyrosine-protein kinase receptor UFO (Homo sapiens) (UniProt P30530); conditions: Compound concentration 1000.0 nM
[40] = target: Methionine aminopeptidase 2 (Homo sapiens, UniProt P50579); test: Biochemical activity-MetAP2 using Mn
[41] = test system: Tyrosine-protein kinase ABL1 (Homo sapiens), P00519 [H396P]; conditions: Compound concentration 1000.0 nM
[42] = target: Bone morphogenetic protein receptor type-2 (Homo sapiens) (UniProt Q13873); conditions: Compound concentration 1000.0 nM
[43] = target: Protein kinase C iota type (Homo sapiens) (UniProt P41743); conditions: Compound concentration 1000.0 nM
[44] = test system: Tyrosine-protein kinase ABL1 (Homo sapiens), P00519 [T315I]; conditions: Compound concentration 1000.0 nM
[45] = target: 3-phosphoinositide-dependent protein kinase 1 (Homo sapiens) (UniProt O15530); conditions: Compound concentration 1000.0 nM

Sequence of Myosin light chain kinase, smooth muscle (Homo sapiens) (Q15746 whole entry): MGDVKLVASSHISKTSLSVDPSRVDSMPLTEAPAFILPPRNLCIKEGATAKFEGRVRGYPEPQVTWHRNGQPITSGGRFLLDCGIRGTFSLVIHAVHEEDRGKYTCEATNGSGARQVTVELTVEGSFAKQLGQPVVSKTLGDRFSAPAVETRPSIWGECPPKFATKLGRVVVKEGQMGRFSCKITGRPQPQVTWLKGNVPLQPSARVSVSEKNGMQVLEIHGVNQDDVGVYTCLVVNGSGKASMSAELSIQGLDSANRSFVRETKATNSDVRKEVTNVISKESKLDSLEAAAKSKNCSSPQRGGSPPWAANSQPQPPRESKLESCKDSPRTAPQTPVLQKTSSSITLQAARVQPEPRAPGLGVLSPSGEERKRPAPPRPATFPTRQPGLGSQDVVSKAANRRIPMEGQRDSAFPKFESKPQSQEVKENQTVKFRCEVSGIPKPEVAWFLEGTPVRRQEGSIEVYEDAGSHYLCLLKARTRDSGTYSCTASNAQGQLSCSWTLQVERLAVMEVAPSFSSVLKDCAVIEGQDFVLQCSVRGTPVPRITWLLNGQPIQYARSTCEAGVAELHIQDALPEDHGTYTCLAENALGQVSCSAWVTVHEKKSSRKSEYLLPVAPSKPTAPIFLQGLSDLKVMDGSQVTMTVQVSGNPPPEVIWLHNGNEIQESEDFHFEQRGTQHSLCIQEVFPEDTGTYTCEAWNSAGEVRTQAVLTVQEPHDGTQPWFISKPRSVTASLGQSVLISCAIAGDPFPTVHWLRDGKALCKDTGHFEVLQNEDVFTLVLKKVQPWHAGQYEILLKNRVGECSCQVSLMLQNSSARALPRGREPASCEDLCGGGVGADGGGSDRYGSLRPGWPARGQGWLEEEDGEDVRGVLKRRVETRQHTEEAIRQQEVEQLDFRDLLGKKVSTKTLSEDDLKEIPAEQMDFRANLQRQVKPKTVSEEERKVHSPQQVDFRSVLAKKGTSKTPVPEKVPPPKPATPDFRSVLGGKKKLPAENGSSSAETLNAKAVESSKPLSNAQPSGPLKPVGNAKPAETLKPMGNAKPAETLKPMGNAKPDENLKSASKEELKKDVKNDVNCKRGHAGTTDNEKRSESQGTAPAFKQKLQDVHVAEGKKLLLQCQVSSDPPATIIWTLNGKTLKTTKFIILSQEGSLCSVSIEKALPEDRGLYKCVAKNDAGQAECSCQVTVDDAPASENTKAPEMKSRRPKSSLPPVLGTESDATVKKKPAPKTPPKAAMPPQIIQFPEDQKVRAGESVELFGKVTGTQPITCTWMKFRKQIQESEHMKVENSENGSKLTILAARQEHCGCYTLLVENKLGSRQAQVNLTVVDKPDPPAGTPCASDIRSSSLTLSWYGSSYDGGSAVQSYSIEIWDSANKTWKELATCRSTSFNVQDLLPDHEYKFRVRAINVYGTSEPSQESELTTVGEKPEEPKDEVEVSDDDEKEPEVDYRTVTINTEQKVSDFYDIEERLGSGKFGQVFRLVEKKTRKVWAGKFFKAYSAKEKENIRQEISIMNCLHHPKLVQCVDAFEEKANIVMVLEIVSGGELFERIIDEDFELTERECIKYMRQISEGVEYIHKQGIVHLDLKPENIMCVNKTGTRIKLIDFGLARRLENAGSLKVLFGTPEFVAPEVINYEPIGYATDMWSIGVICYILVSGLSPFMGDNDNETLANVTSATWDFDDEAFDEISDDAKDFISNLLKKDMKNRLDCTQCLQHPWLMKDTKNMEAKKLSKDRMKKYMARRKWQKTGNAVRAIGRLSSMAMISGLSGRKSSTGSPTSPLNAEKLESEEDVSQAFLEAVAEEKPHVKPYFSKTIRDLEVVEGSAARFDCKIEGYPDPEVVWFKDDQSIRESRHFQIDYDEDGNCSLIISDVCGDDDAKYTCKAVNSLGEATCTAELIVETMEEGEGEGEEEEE
Sequence of Vascular endothelial growth factor receptor 3 (Homo sapiens) (P35916 whole entry): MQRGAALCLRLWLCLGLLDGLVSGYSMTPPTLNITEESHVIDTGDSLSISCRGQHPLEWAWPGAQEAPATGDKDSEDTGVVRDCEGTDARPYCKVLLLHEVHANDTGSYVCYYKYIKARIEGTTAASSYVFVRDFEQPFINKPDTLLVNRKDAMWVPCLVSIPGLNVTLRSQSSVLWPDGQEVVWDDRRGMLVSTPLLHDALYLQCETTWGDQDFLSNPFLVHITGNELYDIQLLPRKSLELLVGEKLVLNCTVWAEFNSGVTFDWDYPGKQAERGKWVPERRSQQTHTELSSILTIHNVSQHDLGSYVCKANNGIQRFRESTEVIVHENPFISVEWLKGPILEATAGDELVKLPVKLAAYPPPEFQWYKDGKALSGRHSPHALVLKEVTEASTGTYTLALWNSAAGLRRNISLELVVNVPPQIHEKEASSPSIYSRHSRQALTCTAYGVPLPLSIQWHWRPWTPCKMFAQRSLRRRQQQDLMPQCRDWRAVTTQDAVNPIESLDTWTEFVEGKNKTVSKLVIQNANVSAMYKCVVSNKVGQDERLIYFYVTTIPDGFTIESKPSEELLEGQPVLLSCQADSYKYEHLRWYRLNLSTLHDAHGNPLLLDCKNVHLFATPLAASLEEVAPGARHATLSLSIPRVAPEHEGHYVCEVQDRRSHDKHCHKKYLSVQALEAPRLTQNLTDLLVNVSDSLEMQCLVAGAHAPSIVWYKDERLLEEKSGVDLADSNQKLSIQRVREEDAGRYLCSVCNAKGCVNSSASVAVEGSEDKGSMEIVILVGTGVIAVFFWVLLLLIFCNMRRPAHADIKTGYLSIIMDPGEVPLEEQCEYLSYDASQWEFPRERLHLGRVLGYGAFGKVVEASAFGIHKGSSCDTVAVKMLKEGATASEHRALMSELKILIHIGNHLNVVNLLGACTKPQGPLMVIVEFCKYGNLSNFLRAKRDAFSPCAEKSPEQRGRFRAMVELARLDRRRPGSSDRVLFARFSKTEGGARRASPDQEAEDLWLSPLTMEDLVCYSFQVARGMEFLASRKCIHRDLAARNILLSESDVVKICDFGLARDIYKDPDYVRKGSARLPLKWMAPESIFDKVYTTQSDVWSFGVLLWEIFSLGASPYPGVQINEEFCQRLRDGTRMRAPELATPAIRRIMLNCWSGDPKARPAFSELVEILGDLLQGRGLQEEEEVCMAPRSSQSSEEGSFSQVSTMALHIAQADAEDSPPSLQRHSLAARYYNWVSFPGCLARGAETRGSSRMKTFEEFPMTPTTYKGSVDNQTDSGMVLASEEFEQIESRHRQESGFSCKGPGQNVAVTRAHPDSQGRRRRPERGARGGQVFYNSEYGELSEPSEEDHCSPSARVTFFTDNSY
Sequence of Tyrosine-protein kinase receptor UFO (Homo sapiens) (P30530 whole entry): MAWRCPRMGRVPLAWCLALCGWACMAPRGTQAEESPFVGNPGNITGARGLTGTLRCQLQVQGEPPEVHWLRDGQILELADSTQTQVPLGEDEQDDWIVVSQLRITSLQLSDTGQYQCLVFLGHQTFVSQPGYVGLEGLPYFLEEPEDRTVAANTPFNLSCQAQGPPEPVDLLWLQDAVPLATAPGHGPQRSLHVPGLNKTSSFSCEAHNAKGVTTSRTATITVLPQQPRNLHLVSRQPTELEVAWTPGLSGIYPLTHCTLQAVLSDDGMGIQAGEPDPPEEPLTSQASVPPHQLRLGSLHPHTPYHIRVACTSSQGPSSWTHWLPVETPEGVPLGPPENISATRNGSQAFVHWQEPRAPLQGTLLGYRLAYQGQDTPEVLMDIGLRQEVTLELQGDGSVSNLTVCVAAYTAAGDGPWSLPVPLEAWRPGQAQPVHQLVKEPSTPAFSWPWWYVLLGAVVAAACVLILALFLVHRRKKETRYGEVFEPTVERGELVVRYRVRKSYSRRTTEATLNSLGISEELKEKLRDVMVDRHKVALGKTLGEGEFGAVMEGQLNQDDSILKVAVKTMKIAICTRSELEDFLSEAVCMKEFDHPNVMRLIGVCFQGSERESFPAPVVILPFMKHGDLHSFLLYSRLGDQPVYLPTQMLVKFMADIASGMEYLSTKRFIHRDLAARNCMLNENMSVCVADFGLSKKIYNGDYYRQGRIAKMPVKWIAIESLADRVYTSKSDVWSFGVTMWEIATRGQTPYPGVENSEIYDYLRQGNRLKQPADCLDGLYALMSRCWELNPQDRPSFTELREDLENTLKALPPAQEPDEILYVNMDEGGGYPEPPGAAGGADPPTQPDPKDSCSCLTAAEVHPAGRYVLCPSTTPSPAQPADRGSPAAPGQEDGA
Sequence of 5-hydroxytryptamine receptor 1D (Homo sapiens) (P28221 whole entry): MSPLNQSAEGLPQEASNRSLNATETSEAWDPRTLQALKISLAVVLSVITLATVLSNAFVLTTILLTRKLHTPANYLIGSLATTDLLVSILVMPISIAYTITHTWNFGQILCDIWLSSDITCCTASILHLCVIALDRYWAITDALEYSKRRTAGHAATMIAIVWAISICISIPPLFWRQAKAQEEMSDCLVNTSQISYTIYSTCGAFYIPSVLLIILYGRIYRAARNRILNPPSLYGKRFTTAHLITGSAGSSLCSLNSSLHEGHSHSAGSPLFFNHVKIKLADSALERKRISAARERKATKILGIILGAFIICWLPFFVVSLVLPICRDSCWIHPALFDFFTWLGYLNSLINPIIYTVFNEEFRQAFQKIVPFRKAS
Sequence of Serine/threonine-protein kinase PAK 1 (Homo sapiens) (Q13153 whole entry): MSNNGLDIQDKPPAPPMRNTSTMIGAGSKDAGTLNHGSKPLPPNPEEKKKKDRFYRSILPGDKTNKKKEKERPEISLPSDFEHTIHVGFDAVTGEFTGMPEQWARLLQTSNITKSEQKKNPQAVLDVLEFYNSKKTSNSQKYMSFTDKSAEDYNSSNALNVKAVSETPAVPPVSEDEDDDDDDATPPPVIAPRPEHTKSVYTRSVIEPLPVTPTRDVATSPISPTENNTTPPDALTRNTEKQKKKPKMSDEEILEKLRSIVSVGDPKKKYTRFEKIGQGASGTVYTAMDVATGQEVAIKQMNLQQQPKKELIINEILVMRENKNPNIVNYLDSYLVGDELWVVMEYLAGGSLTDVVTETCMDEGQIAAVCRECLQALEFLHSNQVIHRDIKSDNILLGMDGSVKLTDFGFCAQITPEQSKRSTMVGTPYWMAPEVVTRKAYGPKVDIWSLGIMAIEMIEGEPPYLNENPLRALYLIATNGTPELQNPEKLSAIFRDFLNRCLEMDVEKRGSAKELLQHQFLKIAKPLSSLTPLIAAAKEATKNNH

Work on Cc1nc(N2CC[C@@H](O)C2)ncc1-c1cc(C(F)(F)F)cc2[nH]ncc12 [TP-004] yielded a residual activity [1] of 64%, a residual activity [2] of 98% and a residual activity [3] of 100%. The residual activity [4] was 53%, the residual activity [5] was 81% and the residual activity [6] was 100%. It also gave a residual activity [7] of 100%, an inhibition [8] of 7.69% and a residual activity [9] of 82%. The residual activity [10] was 87%, the residual activity [11] was 90% and the residual activity [12] was 100%. The residual activity [13] was 100%, the residual activity [14] was 60% and the residual activity [15] was 58%. For the same molecule, the residual activity [16] was 100%, the residual activity [17] was 100% and the residual activity [18] was 52%. The residual activity [19] was 81%, the residual activity [20] was 76% and the residual activity [21] was 100%. It also gave a residual activity [22] of 100%, a residual activity [23] of 100% and a residual activity [24] of 83%. The residual activity [25] was 83%, the residual activity [26] was 93% and the residual activity [27] was 100%. For the same molecule, the residual activity [28] was 80%, the residual activity [29] was 74% and the residual activity [30] was 100%. It also gave a residual activity [31] of 100%, a residual activity [32] of 60% and a residual activity [33] of 100%. It also gave a residual activity [34] of 82%, a residual activity [35] of 100% and a residual activity [36] of 71%. For the same molecule, the inhibition [37] was 45.5%, the inhibition [38] was -8.55% and the residual activity [39] was 80%. For the same molecule, the IC50 [40] was 7 nM (active), the residual activity [41] was 77% and the residual activity [42] was 81%. It also gave a residual activity [43] of 100%, a residual activity [44] of 78% and a residual activity [45] of 100%.
